Measurements: ChEMBL document CHEMBL3991601, “The target landscape of clinical kinase drugs” (Science, 2017)
Calls of active or inactive are those of the source. For most assays here, no stated cut-off is given here; in the data, actives have a measured Kd and inactives only a lower limit.

Key:
Myosin-14 = Myosin-14 (Homo sapiens, UniProt Q7Z406)
[1] = molecular target: T1, Ribosyldihydronicotinamide dehydrogenase [quinone] (Homo sapiens, UniProt P16083)
T1 sequence (P16083 whole entry): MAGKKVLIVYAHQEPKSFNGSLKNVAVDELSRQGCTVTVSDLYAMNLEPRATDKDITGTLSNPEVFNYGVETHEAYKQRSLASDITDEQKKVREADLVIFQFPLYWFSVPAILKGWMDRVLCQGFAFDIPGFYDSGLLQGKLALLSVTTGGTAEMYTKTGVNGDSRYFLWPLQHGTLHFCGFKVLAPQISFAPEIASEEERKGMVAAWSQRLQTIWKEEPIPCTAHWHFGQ

Pyridoxal kinase = molecular target: T2, Pyridoxal kinase (Homo sapiens, UniProt O00764)
T2 sequence (O00764 whole entry): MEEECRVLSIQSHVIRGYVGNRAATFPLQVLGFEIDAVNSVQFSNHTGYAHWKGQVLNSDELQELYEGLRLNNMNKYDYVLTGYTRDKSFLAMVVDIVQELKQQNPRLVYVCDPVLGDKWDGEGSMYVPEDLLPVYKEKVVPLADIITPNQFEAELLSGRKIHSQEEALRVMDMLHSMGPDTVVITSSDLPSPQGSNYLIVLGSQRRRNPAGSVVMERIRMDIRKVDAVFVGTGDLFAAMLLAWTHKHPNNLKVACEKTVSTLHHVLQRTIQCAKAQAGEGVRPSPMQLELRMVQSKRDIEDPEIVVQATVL

[2] = molecular target: T3, Cyclin-G-associated kinase (Homo sapiens, UniProt O14976)
T3 sequence (O14976 whole entry): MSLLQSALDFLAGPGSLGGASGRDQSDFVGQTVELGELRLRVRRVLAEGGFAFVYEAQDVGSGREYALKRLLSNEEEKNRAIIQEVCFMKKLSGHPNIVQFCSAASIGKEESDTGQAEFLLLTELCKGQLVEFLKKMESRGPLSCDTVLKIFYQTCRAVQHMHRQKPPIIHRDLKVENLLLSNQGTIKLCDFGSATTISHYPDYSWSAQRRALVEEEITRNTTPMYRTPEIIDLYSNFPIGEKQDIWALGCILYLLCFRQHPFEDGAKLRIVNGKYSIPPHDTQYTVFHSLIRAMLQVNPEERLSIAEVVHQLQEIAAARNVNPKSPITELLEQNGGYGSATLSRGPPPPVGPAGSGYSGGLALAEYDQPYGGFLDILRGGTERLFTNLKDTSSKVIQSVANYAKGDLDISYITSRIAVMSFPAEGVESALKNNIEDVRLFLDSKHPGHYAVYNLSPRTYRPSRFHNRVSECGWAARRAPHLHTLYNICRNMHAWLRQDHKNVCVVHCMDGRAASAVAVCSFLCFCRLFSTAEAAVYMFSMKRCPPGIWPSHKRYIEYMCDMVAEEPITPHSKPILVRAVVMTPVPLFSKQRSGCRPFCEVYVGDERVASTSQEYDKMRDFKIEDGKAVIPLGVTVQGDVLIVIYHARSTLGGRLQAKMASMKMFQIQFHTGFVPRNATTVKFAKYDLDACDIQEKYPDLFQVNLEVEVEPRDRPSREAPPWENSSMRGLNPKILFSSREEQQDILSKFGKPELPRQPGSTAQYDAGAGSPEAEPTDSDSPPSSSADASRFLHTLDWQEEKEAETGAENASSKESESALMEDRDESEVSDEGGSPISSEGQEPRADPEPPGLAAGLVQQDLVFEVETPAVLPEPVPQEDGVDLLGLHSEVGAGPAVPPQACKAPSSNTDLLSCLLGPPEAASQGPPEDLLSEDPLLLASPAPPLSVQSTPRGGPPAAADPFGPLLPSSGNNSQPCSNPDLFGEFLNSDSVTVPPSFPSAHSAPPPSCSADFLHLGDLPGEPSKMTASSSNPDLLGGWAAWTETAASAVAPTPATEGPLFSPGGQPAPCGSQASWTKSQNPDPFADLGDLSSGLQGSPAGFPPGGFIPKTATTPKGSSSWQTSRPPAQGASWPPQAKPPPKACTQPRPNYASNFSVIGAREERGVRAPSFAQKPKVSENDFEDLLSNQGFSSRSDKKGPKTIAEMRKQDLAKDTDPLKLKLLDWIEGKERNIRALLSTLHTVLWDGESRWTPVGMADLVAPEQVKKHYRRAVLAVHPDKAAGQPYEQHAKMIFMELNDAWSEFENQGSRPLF

[3] = molecular target: Protein-tyrosine kinase 6 (Homo sapiens, UniProt Q13882)
[4] = molecular target: Cyclin-dependent kinase 17 (Homo sapiens, UniProt Q00537)
[5] = molecular target: T4, Phosphatidylinositol 5-phosphate 4-kinase type-2 gamma (Homo sapiens, UniProt Q8TBX8)
T4 sequence (Q8TBX8 whole entry): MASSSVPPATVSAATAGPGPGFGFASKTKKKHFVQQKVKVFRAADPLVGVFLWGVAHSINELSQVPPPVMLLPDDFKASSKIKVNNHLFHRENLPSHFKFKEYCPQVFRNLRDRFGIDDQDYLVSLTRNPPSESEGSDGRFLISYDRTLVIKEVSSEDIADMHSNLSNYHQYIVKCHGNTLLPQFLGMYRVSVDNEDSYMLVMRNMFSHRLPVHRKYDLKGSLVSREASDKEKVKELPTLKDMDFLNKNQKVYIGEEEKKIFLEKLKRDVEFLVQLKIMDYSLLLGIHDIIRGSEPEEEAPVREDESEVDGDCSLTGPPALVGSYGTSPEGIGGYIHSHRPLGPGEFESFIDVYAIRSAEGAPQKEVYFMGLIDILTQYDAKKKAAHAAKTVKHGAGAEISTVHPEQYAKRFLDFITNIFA

[6] = molecular target: T5, MAP kinase-activated protein kinase 5 (Homo sapiens, UniProt Q8IW41)
T5 sequence (Q8IW41 whole entry): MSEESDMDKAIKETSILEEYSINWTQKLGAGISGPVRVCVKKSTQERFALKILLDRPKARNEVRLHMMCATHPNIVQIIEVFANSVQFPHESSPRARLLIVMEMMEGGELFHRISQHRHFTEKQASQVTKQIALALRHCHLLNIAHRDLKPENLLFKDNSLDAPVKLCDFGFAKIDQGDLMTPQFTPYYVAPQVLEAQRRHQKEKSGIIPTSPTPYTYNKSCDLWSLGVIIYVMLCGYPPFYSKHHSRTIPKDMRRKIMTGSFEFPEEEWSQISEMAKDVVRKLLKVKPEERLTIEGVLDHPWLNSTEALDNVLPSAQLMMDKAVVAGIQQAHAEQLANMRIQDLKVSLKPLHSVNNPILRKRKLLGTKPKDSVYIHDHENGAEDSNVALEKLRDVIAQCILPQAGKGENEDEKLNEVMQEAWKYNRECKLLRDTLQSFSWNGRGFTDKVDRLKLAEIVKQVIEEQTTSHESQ

Chain of Myosin-14 (Q7Z406 whole entry): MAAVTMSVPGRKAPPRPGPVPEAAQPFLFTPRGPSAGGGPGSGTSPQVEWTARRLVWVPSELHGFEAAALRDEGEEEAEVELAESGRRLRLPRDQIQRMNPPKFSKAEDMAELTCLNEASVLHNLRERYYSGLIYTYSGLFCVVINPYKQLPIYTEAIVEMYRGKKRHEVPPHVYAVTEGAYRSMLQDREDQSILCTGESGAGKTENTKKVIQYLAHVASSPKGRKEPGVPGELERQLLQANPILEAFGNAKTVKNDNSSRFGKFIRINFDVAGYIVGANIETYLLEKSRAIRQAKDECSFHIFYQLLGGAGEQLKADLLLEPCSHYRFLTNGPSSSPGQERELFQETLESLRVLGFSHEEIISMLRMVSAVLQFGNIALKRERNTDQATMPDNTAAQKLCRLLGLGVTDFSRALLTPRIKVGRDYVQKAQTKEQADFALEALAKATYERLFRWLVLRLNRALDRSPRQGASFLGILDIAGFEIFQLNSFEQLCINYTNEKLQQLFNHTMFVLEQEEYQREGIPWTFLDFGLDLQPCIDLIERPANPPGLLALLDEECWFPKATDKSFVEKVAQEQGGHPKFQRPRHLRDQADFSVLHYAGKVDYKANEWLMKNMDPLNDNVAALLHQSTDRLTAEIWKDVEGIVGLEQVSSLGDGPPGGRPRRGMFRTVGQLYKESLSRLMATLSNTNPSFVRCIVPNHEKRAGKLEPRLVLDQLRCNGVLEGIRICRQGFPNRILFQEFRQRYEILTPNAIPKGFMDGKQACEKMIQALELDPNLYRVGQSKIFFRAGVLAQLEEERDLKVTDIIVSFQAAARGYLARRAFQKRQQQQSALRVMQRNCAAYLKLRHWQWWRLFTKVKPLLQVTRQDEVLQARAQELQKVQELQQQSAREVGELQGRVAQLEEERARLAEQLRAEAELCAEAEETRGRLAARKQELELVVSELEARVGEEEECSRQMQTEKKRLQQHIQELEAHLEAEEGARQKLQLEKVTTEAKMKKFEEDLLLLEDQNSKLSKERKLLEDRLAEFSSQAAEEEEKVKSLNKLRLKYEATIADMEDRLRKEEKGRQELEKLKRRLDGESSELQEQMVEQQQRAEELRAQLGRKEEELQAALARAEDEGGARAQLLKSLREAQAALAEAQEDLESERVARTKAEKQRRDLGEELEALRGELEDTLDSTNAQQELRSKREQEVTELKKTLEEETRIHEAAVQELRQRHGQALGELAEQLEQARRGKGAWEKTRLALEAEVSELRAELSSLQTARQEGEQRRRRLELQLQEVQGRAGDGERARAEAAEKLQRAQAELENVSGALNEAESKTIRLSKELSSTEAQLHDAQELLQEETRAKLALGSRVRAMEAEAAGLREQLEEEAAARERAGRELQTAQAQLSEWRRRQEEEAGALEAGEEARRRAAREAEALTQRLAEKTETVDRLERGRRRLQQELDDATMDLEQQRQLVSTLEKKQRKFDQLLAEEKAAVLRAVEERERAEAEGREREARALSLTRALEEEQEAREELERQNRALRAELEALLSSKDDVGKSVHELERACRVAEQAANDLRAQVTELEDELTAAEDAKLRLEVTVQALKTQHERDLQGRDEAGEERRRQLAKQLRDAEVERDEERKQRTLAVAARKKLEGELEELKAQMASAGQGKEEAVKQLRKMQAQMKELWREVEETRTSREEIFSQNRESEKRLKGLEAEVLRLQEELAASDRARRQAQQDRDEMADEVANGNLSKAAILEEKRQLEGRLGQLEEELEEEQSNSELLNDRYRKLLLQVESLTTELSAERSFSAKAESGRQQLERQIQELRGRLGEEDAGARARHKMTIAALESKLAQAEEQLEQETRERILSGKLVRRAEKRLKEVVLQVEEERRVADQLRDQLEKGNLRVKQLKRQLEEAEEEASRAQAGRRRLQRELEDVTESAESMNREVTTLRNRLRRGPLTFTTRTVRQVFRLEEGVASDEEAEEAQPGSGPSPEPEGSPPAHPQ
Chain of Cyclin-dependent kinase 17 (Q00537 whole entry): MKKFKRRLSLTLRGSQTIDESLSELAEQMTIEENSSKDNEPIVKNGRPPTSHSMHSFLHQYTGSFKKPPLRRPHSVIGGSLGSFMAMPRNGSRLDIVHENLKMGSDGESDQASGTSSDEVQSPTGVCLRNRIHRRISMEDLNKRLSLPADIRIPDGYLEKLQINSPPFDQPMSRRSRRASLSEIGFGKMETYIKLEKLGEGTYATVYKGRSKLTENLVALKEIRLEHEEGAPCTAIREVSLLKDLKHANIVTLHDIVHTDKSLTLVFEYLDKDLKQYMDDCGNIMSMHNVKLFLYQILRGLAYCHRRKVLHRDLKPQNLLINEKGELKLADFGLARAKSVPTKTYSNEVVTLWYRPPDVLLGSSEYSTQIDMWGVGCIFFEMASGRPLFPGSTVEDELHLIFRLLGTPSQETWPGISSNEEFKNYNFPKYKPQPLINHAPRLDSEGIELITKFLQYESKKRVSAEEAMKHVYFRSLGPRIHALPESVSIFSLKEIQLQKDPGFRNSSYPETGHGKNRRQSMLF
Chain of Protein-tyrosine kinase 6 (Q13882 whole entry): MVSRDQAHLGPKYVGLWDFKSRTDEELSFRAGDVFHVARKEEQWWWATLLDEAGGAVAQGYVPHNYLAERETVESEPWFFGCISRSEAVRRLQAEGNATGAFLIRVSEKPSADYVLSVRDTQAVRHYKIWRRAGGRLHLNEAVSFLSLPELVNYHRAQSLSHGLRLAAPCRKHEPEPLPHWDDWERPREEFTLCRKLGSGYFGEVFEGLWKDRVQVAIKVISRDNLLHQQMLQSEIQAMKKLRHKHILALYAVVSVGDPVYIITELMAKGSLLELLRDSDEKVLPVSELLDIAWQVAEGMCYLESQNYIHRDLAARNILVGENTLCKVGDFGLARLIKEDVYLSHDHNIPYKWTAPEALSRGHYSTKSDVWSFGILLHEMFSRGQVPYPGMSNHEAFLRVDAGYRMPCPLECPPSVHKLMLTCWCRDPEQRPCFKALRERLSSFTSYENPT

## Cn1cc(C2=C(c3cn(C4CCN(Cc5ccccn5)CC4)c4ccccc34)C(=O)NC2=O)c2ccccc21 [ENZASTAURIN]
Myosin-14
  Kd: > 30 µM (inactive)
[1]
  Kd: > 30 µM (inactive)
Pyridoxal kinase
  Kd: > 30 µM (inactive)

## CC(C)(C)c1nc(-c2cccc(NS(=O)(=O)c3c(F)cccc3F)c2F)c(-c2ccnc(N)n2)s1 [DABRAFENIB]
Myosin-14
  Kd: > 30 µM (inactive)
[2]
  Kd: > 30 µM (inactive)
[3]
  Kd: 1.41 µM (active)
[1]
  Kd: > 30 µM (inactive)
[4]
  Kd: 0.036 µM (active)
Pyridoxal kinase
  Kd: > 30 µM (inactive)
[5]
  Kd: > 30 µM (inactive)

## CCn1cc(-c2ccnc3[nH]c(-c4cccc(CN(C)C)c4)cc23)c(-c2ccc(NC(=O)N(C)C)cc2)n1 [GSK-1070916]
Myosin-14
  Kd: > 30 µM (inactive)
[3]
  Kd: 8.19 µM (active)
[1]
  Kd: > 30 µM (inactive)
[4]
  Kd: > 30 µM (inactive)
Pyridoxal kinase
  Kd: > 30 µM (inactive)
[6]
  Kd: > 30 µM (inactive)

## CCNC(=O)C#Cc1ccc2c(c1)NC(=O)/C2=C(\Nc1ccc(CN(C)C)cc1)c1ccccc1
Myosin-14
  Kd: > 30 µM (inactive)
[2]
  Kd: > 30 µM (inactive)
[3]
  Kd: > 30 µM (inactive)
[1]
  Kd: > 30 µM (inactive)
[4]
  Kd: > 30 µM (inactive)
Pyridoxal kinase
  Kd: > 30 µM (inactive)
[5]
  Kd: > 30 µM (inactive)

## COc1cc(Nc2ncc3c(n2)-c2ccc(Cl)cc2C(c2c(F)cccc2OC)=NC3)ccc1C(=O)O [ALISERTIB]
Myosin-14
  Kd: > 30 µM (inactive)
[2]
  Kd: > 30 µM (inactive)
[1]
  Kd: > 30 µM (inactive)
[4]
  Kd: > 30 µM (inactive)
Pyridoxal kinase
  Kd: > 30 µM (inactive)

## N#CC[C@H](C1CCCC1)n1cc(-c2ncnc3[nH]ccc23)cn1 [RUXOLITINIB]
Myosin-14
  Kd: > 30 µM (inactive)
[1]
  Kd: > 30 µM (inactive)
Pyridoxal kinase
  Kd: > 30 µM (inactive)

## Cc1nc(NC(=O)N2CCC[C@H]2C(N)=O)sc1-c1ccnc(C(C)(C)C(F)(F)F)c1 [ALPELISIB]
Myosin-14
  Kd: > 30 µM (inactive)
[2]
  Kd: 4.97 µM (active)
[3]
  Kd: > 30 µM (inactive)
[1]
  Kd: > 30 µM (inactive)
Pyridoxal kinase
  Kd: > 30 µM (inactive)
[6]
  Kd: > 30 µM (inactive)

## CNC(=O)c1nn(C)c2c1C(C)(C)Cc1cnc(Nc3ccc(N4CCN(C)CC4)cc3)nc1-2 [MILCICLIB]
Myosin-14
  Kd: > 30 µM (inactive)
[2]
  Kd: 0.003 µM (active)
[3]
  Kd: > 30 µM (inactive)
[1]
  Kd: > 30 µM (inactive)
Pyridoxal kinase
  Kd: > 30 µM (inactive)
[6]
  Kd: > 30 µM (inactive)
[5]
  Kd: 1.43 µM (active)

## Cn1ncc(Cl)c1-c1cc(C(=O)N[C@H](CN)Cc2ccc(F)c(F)c2)oc1Cl [UPROSERTIB]
Myosin-14
  Kd: > 30 µM (inactive)
[2]
  Kd: > 30 µM (inactive)
[3]
  Kd: > 30 µM (inactive)
[1]
  Kd: > 30 µM (inactive)
Pyridoxal kinase
  Kd: > 30 µM (inactive)
[6]
  Kd: > 30 µM (inactive)
[5]
  Kd: > 30 µM (inactive)

## CC(=O)NCC(=O)N1[C@@H]2CC[C@H]1c1ccc(Nc3ncc(C(F)(F)F)c(NC4CCC4)n3)cc12 [PF-03814735]
[2]
  Kd: 1.76 µM (active)
[1]
  Kd: > 30 µM (inactive)
[4]
  Kd: > 30 µM (inactive)
Pyridoxal kinase
  Kd: > 30 µM (inactive)
[5]
  Kd: > 30 µM (inactive)

## C[C@H]1CNCCCN1S(=O)(=O)c1cccc2cncc(F)c12
Myosin-14
  Kd: > 30 µM (inactive)
[2]
  Kd: > 30 µM (inactive)
[3]
  Kd: > 30 µM (inactive)
[1]
  Kd: 3.7 µM (active)
[4]
  Kd: > 30 µM (inactive)
Pyridoxal kinase
  Kd: > 30 µM (inactive)
[5]
  Kd: > 30 µM (inactive)

## C[C@@H](Oc1cc(C(=O)Nc2ccc(C(=O)N3CCN(C)CC3)cc2)nnc1N)c1c(Cl)ccc(F)c1Cl
Myosin-14
  Kd: > 30 µM (inactive)
[2]
  Kd: > 30 µM (inactive)
[3]
  Kd: > 30 µM (inactive)
[1]
  Kd: > 30 µM (inactive)
Pyridoxal kinase
  Kd: > 30 µM (inactive)
[6]
  Kd: > 30 µM (inactive)
[5]
  Kd: > 30 µM (inactive)

## Cc1[nH]c(/C=C2\C(=O)Nc3ccccc32)c(C)c1CCC(=O)O [ORANTINIB]
Myosin-14
  Kd: > 30 µM (inactive)
[2]
  Kd: 2.09 µM (active)
[1]
  Kd: > 30 µM (inactive)
[4]
  Kd: > 30 µM (inactive)
Pyridoxal kinase
  Kd: > 30 µM (inactive)

## Cc1csc(-c2nnc(Nc3ccc(Oc4ncccc4-c4ccnc(N)n4)cc3)c3ccccc23)c1 [AMG-900]
Myosin-14
  Kd: > 30 µM (inactive)
[2]
  Kd: > 30 µM (inactive)
[3]
  Kd: > 30 µM (inactive)
[1]
  Kd: 3.35 µM (active)
[4]
  Kd: > 30 µM (inactive)
Pyridoxal kinase
  Kd: > 30 µM (inactive)
[6]
  Kd: > 30 µM (inactive)

## CNC(=O)c1ccccc1Sc1ccc2c(/C=C/c3ccccn3)n[nH]c2c1 [AXITINIB]
Myosin-14
  Kd: > 30 µM (inactive)
[1]
  Kd: > 30 µM (inactive)
Pyridoxal kinase
  Kd: > 30 µM (inactive)

## C[C@@H](Oc1cc(-n2cnc3ccc(CN4CCN(C)CC4)cc32)sc1C(N)=O)c1ccccc1C(F)(F)F [GSK-461364]
Myosin-14
  Kd: > 30 µM (inactive)
[1]
  Kd: > 30 µM (inactive)
Pyridoxal kinase
  Kd: > 30 µM (inactive)

## C=CC(=O)Nc1cc2c(Nc3ccc(F)c(Cl)c3)ncnc2cc1C#CC(C)(C)N1CCN(C)CC1 [AV-412 FREE BASE]
[2]
  Kd: > 30 µM (inactive)
[3]
  Kd: > 30 µM (inactive)
[1]
  Kd: > 30 µM (inactive)
Pyridoxal kinase
  Kd: > 30 µM (inactive)
[6]
  Kd: > 30 µM (inactive)
[5]
  Kd: > 30 µM (inactive)

## O=C(NOCCO)c1cc(CN2OCCCC2=O)c(F)c(F)c1Nc1ccc(I)cc1F [RO-4987655]
Myosin-14
  Kd: > 30 µM (inactive)
[1]
  Kd: > 30 µM (inactive)
Pyridoxal kinase
  Kd: > 30 µM (inactive)

## NC(=O)c1c(OCc2c(F)cc(Br)cc2F)nsc1NC(=O)NCCCCN1CCCC1 [OSI-632]
Myosin-14
  Kd: > 30 µM (inactive)
[2]
  Kd: > 30 µM (inactive)
[1]
  Kd: > 30 µM (inactive)
Pyridoxal kinase
  Kd: > 30 µM (inactive)

## CCn1c(C(=O)N(C2CC2)C2CC2)cc2c3c(ncn3C)c(Nc3cc(C)n(C)n3)nc21 [BMS-911543]
Myosin-14
  Kd: > 30 µM (inactive)
[2]
  Kd: > 30 µM (inactive)
[3]
  Kd: > 30 µM (inactive)
[1]
  Kd: 5.86 µM (active)
[4]
  Kd: > 30 µM (inactive)
Pyridoxal kinase
  Kd: > 30 µM (inactive)
[5]
  Kd: > 30 µM (inactive)
